Like-named read-outs stand apart in the source and are kept apart here.
Key:
[1] = system: V79mz cells (parental cell line which does not express CYP1B1)
Experimental: (§1) The cytotoxicity assay method used was a modification of the MTT cytotoxicity assay (Carmichael et al., 1987, Cancer Research, 47: 936). […] Compound stocks were made up as 100 mM in DMSO and stored for no more than one month at 4° C. The plates were then incubated at 37° C., 5% CO2, 100% humidity for a further 48 hours followed by washing by immersion 3 times in Dulbecco's PBS (phosphate buffered saline) A. 50 μl of RPMI 1640 w/o phenol red (Roswell Park Memorial Institute Medium 1640, Life Science International) with 2 mg/ml MTT was then added for four hours as above, excess MTT removed by aspiration and 125 μl of DMSO added on a vortex for 30 minutes to solubilize the product. The absorbance at A450 was recorded and the results expressed as a % survival of carrier only treated controls.

[2] = system: V79mzhu1B1 cells (express the enzyme CYP1B1)
Experimental: as §1

[3] = molecular target: T1, CYP1B1 (microsomal preparation of human tumour tissue expressing the CYP1B1 enzyme) (Homo sapiens, UniProt Q16678); conditions: pH 7.6
T1 sequence (Q16678 1-543): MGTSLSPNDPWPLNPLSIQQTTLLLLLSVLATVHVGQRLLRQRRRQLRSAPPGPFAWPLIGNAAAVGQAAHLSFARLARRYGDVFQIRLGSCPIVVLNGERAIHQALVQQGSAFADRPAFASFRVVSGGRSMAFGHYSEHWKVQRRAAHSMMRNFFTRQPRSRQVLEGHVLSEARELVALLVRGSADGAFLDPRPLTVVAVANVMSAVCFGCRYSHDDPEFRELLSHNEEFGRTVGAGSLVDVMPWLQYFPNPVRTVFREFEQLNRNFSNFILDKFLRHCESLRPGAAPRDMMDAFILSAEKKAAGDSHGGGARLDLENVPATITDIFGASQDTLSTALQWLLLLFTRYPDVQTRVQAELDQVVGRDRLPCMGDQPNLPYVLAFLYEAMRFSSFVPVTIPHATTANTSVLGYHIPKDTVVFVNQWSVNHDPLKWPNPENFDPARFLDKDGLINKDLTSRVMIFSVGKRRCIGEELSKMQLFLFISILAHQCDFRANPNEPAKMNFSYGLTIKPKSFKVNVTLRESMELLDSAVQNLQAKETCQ
Experimental: (§2) A microsomal preparation of human tumour tissue expressing the CYP1B1 enzyme was prepared essentially as described by the method of Barrie et al. (1989. J. Steroid Biochem., 6: 1191-1195)
(§3) Experiment were carried out at 37° C., under yellow light.
(§4) An array of 1.5 ml centrifuge tubes were set up in a water bath shaker under aerobic conditions. To each tube was then added 500 μl of pH 7.6 buffer (0.1 M NaK2PO4), followed by NADPH (5 μl of a 25 mM stock solution). The microsomal preparation (80 μl) was then added and the tubes preincubated for 5 minutes at 37° C. The prodrug substrate was then added (10 μl of a 5 mM stock solution) and incubated for 1 hour at 37° C. After 1 hour the tubes were transferred to an ice/water cooling bath (0° C.). The tubes were then centrifuged at 1 5,000 rpm for 30 minutes. A sample of the supernatant (100 μl) was then taken and analysed by HPLC.
(§5) HPLC conditions: Spherisorb C18 (25 cm×4.6 mm id), used without guard column. Flow rate 1 ml/min. Eluent 75% 0.1 M KH2PO4 and 25% acetonitrile.

[4] = MTT cytotoxicity assay, cell line expressing CYP1B1; conditions: Chinese hamster, V79mzhu1B1 cells (V79 cells that express CYP1B1)
Experimental: as §1

[5] = molecular target: T1, CYP1B1 (microsomal preparation of human tumour tissue expressing the CYP1B1 enzyme); assay: Metabolism studies with microsomal preparation of human tumour tissue, HPLC detection of the hydroxylated metabolite; conditions: tumour microsomes, NADPH, pH 7.6, 1 hour at 37° C., confirmed by synthesis of authentic metabolite
Experimental: as §2, §3, §4, §5

[6] = MTT cytotoxicity assay, parental cell line not expressing CYP1B1; conditions: Chinese hamster, V79mz cells (parental line that does not express CYP1B1)
Experimental: as §1

[7] = system: V79mzhu1B1 cells (express the enzyme CYP1B1); assay: MTT cytotoxicity assay, cell line expressing CYP1B1; conditions: V79 IC50 versus V791B1 IC50
Experimental: as §1

Row | SMILES | IC50 at 48 h [4] [µM] | aromatic hydroxylation to hydroxylated metabolite [5] | IC50 at 48 h [6] [µM] | further results
1 | COc1ccc(/C=C/c2ccc(OC)cc2)cc1 [Compound IIIb, (E)-(4,4′)-Dimethoxystilbene] |  |  |  | IC50 [1]: 58.2 µM; IC50 [2]: 8.3 µM
2 | Oc1ccc(/C=C/c2cc(O)cc(O)c2)cc1 [Compound IIIc, (E)-(3,4′,5)-trihydroxystilbene] |  |  |  | aromatic hydroxylation to hydroxylated metabolite [3]: converted to the hydroxylated metabolite (E)-(3,3′,4,5′)-tetrahydroxystilbene
3 | COc1ccc(/C=C(\C#N)c2cccnc2)cc1 [Compound IIa, (Z)-1-Cyano-1-(3-pyridyl)-2-(4-methoxyphenyl)ethene] | 1.63 | converted to the hydroxylated metabolite (Z)-1-Cyano-1-(3-pyridyl)-2-(3-hydroxy-4-methoxyphenyl)ethene | 1.81 | 
4 | COc1ccc(/C=C/C(=O)c2cc(OC)c(OC)c(OC)c2)cc1 [Compound VII, (E)-1-(4-Methoxyphenyl)-3-(3,4,5-trimethoxyphenyl)prop-1-en-3-one] | 0.005 | converted to the hydroxylated metabolite (E)-1-(3-Hydroxy4-methoxyphenyl)-3-(3,4,5-trimethoxyphenyl)prop-1-en-3-one | 1 | fold more cytotoxic to the cell line expressing CYP1B1 than to the parental cell line not expressing this enzyme [7]: around 200 fold
5 | COc1cc(C(=O)/C=C/c2ccc(O)cc2)cc(OC)c1OC [Compound VIII, (E)-1-(4-Hydroxyphenyl)-3-(3,4,5-trimethoxyphenyl)prop-1-en-3-one] | 1.71 |  | 1.81 | 

Reference: patent US6677383B1, “Hydroxylation activated prodrugs” (De Montfort University, priority 1998, dated 2004)
